Assay results as given in the supplement of paper PMC10307832.

What was measured:
Assay in all cases: relative viability (nuclei count vs DMSO), 5 days (fraction); higher = more cells survive
NCI-H1703 = test system: NCI-H1703
Method in brief: (§1)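 Lung cancer cell lines were pin-tool dosed in 1536-well plates on the day after seeding, with either a lone drug or a fixed anchor-drug dose plus five library-drug doses (not always all listed) in √10 steps. Nuclei were counted on 4× images after 5 days. Relative viability is the ratio of treated-well to vehicle-well nuclei counts, with each value a median of duplicate plates.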

IA-LM = test system: IA-LM
Method in brief: as §1

NCI-H520 = test system: NCI-H520
Method in brief: as §1

COR-L 105 = test system: COR-L 105
Method in brief: as §1

A549 = test system: A549
Method in brief: as §1

NCI-H1299 = test system: NCI-H1299
Method in brief: as §1

Calu-6 = test system: Calu-6
Method in brief: as §1

LK-2 = test system: LK-2
Method in brief: as §1

EBC-1 = test system: EBC-1
Method in brief: as §1

NCI-H1355 = test system: NCI-H1355
Method in brief: as §1

## O=c1cc(N2CCOCC2)oc2c(-c3cccc4c3sc3ccccc34)cccc12 + CC1(C)CCC(c2ccc(Cl)cc2)=C(CN2CCN(c3ccc(C(=O)NS(=O)(=O)c4ccc(N[C@H](CCN5CCOCC5)CSc5ccccc5)c(S(=O)(=O)C(F)(F)F)c4)cc3)CC2)C1 [Navitoclax] (partner 0.5 µM)
NCI-H1703; first compound 0.01 µM
  relative viability: 1.34
NCI-H1703; first compound 0.03162 µM
  relative viability: 1.28
NCI-H1703; first compound 0.1 µM
  relative viability: 1.24
NCI-H1703; first compound 0.3162 µM
  relative viability: 1.07
NCI-H1703; first compound 1 µM
  relative viability: 1.01
IA-LM; first compound 0.01 µM
  relative viability: 0.909
IA-LM; first compound 0.03162 µM
  relative viability: 0.667
IA-LM; first compound 0.1 µM
  relative viability: 0.902
IA-LM; first compound 0.3162 µM
  relative viability: 0.561
IA-LM; first compound 1 µM
  relative viability: 0.876
NCI-H520; first compound 0.01 µM
  relative viability: 1.11
NCI-H520; first compound 0.03162 µM
  relative viability: 1.14
NCI-H520; first compound 0.1 µM
  relative viability: 1.18
NCI-H520; first compound 0.3162 µM
  relative viability: 1.05
NCI-H520; first compound 1 µM
  relative viability: 1.22
COR-L 105; first compound 0.01 µM
  relative viability: 0.91
COR-L 105; first compound 0.03162 µM
  relative viability: 0.817
COR-L 105; first compound 0.1 µM
  relative viability: 0.79
COR-L 105; first compound 0.3162 µM
  relative viability: 0.73
COR-L 105; first compound 1 µM
  relative viability: 0.676
A549; first compound 0.01 µM
  relative viability: 1.22
A549; first compound 0.03162 µM
  relative viability: 1.17
A549; first compound 0.1 µM
  relative viability: 1.28
A549; first compound 0.3162 µM
  relative viability: 1.23
A549; first compound 1 µM
  relative viability: 1.2
NCI-H1299; first compound 0.01 µM
  relative viability: 1.02
NCI-H1299; first compound 0.03162 µM
  relative viability: 1.06
NCI-H1299; first compound 0.1 µM
  relative viability: 1.08
NCI-H1299; first compound 0.3162 µM
  relative viability: 1
NCI-H1299; first compound 1 µM
  relative viability: 1.04
Calu-6; first compound 0.01 µM
  relative viability: 0.795
Calu-6; first compound 0.03162 µM
  relative viability: 0.786
Calu-6; first compound 0.1 µM
  relative viability: 0.967
Calu-6; first compound 0.3162 µM
  relative viability: 0.86
Calu-6; first compound 1 µM
  relative viability: 0.933
LK-2; first compound 0.01 µM
  relative viability: 0.882
LK-2; first compound 0.03162 µM
  relative viability: 0.886
LK-2; first compound 0.1 µM
  relative viability: 0.896
LK-2; first compound 0.3162 µM
  relative viability: 0.874
LK-2; first compound 1 µM
  relative viability: 1.07
EBC-1; first compound 0.01 µM
  relative viability: 0.469
EBC-1; first compound 0.03162 µM
  relative viability: 0.377
EBC-1; first compound 0.1 µM
  relative viability: 0.353
EBC-1; first compound 0.3162 µM
  relative viability: 0.408
EBC-1; first compound 1 µM
  relative viability: 0.406
NCI-H1355; first compound 0.01 µM
  relative viability: 0.956
NCI-H1355; first compound 0.03162 µM
  relative viability: 0.981
NCI-H1355; first compound 0.3162 µM
  relative viability: 0.941
NCI-H1355; first compound 1 µM
  relative viability: 0.891

## O=c1cc(N2CCOCC2)oc2c(-c3cccc4c3sc3ccccc34)cccc12 + CS(=O)(=O)CCNCc1ccc(-c2ccc3ncnc(Nc4ccc(OCc5cccc(F)c5)c(Cl)c4)c3c2)o1 [Lapatinib] (partner 2 µM)
NCI-H1703; first compound 0.01 µM
  relative viability: 1.36
NCI-H1703; first compound 0.03162 µM
  relative viability: 0.815
NCI-H1703; first compound 0.1 µM
  relative viability: 1.27
NCI-H1703; first compound 0.3162 µM
  relative viability: 1.17
NCI-H1703; first compound 1 µM
  relative viability: 1.01
IA-LM; first compound 0.01 µM
  relative viability: 0.764
IA-LM; first compound 0.03162 µM
  relative viability: 0.582
IA-LM; first compound 0.1 µM
  relative viability: 0.663
IA-LM; first compound 0.3162 µM
  relative viability: 0.86
IA-LM; first compound 1 µM
  relative viability: 0.602
NCI-H520; first compound 0.01 µM
  relative viability: 0.781
NCI-H520; first compound 0.03162 µM
  relative viability: 0.825
NCI-H520; first compound 0.1 µM
  relative viability: 0.767
NCI-H520; first compound 0.3162 µM
  relative viability: 0.816
NCI-H520; first compound 1 µM
  relative viability: 0.906
COR-L 105; first compound 0.01 µM
  relative viability: 0.384
COR-L 105; first compound 0.03162 µM
  relative viability: 0.327
COR-L 105; first compound 0.1 µM
  relative viability: 0.397
COR-L 105; first compound 0.3162 µM
  relative viability: 0.379
COR-L 105; first compound 1 µM
  relative viability: 0.412
A549; first compound 0.01 µM
  relative viability: 0.964
A549; first compound 0.03162 µM
  relative viability: 0.931
A549; first compound 0.1 µM
  relative viability: 0.997
A549; first compound 0.3162 µM
  relative viability: 0.979
A549; first compound 1 µM
  relative viability: 0.968
NCI-H1299; first compound 0.01 µM
  relative viability: 0.957
NCI-H1299; first compound 0.03162 µM
  relative viability: 0.957
NCI-H1299; first compound 0.1 µM
  relative viability: 0.969
NCI-H1299; first compound 0.3162 µM
  relative viability: 0.961
NCI-H1299; first compound 1 µM
  relative viability: 0.964
Calu-6; first compound 0.01 µM
  relative viability: 1.08
Calu-6; first compound 0.03162 µM
  relative viability: 1.11
Calu-6; first compound 0.1 µM
  relative viability: 1.17
Calu-6; first compound 0.3162 µM
  relative viability: 1.08
Calu-6; first compound 1 µM
  relative viability: 1.05
LK-2; first compound 0.01 µM
  relative viability: 0.832
LK-2; first compound 0.03162 µM
  relative viability: 0.986
LK-2; first compound 0.1 µM
  relative viability: 1.12
LK-2; first compound 0.3162 µM
  relative viability: 0.909
LK-2; first compound 1 µM
  relative viability: 1.07
EBC-1; first compound 0.01 µM
  relative viability: 0.227
EBC-1; first compound 0.03162 µM
  relative viability: 0.207
EBC-1; first compound 0.1 µM
  relative viability: 0.246
EBC-1; first compound 0.3162 µM
  relative viability: 0.237
EBC-1; first compound 1 µM
  relative viability: 0.227
NCI-H1355; first compound 0.01 µM
  relative viability: 0.998
NCI-H1355; first compound 0.03162 µM
  relative viability: 1
NCI-H1355; first compound 0.3162 µM
  relative viability: 1.03
NCI-H1355; first compound 1 µM
  relative viability: 0.963
